As usually defined, the inhibition is the change of the read-out against control, counted positive when it falls. A word on the IC50: it is the concentration at which inhibition is half-maximal. A lower IC50 goes with greater potency. The TGI is the concentration giving total growth inhibition. Higher therefore signals lower sensitivity of the cells. One may read the Ki as a measure of affinity in units of concentration, obtained from inhibition or displacement.

The structures appear in SMILES notation.

Assay [1] has as its target Receptor-type tyrosine-protein kinase FLT3 (Homo sapiens) (UniProt P36888). The following applies: Compound concentration 10.0 uM.
The target in assay [2] is Mitogen-activated protein kinase 10 (Homo sapiens) (UniProt P53779). The experiment in a line: JNK3 (h) Upstate kinase activity assay. Conditions: Compound concentration 10.0 uM.
Another assay relates to HT-29. The experiment in a line: Colon HT-29 cell line MDS Pharma Services Proliferation Assay. The class given is functional, cell-based, Homo sapiens.
Assay [3] concerns the target Serine/threonine-protein kinase PAK 2 (Homo sapiens) (UniProt Q13177). The experiment in a line: PAK2 (h) Upstate kinase activity assay. The following applies: Compound concentration 10.0 uM.
The target of assay [4] is Tyrosine-protein kinase Fyn (Homo sapiens) (UniProt P06241). The experiment in a line: Fyn (h) Upstate kinase activity assay. Conditions: Compound concentration 10.0 uM.
Assay [5] addresses Mitogen-activated protein kinase 1 (Mus musculus) (UniProt P63085). The experiment in a line: MAPK2 (m) Upstate kinase activity assay. The following applies: Compound concentration 10.0 uM.
The target of assay [6] is Fibroblast growth factor receptor 3 (Homo sapiens) (UniProt P22607). The experiment in a line: FGFR3 (h) Upstate kinase activity assay. The following applies: Compound concentration 10.0 uM.
The target in assay [7] is T1, Cytoplasmic tyrosine-protein kinase BMX (Homo sapiens) (UniProt P51813).
T1 sequence (whole entry): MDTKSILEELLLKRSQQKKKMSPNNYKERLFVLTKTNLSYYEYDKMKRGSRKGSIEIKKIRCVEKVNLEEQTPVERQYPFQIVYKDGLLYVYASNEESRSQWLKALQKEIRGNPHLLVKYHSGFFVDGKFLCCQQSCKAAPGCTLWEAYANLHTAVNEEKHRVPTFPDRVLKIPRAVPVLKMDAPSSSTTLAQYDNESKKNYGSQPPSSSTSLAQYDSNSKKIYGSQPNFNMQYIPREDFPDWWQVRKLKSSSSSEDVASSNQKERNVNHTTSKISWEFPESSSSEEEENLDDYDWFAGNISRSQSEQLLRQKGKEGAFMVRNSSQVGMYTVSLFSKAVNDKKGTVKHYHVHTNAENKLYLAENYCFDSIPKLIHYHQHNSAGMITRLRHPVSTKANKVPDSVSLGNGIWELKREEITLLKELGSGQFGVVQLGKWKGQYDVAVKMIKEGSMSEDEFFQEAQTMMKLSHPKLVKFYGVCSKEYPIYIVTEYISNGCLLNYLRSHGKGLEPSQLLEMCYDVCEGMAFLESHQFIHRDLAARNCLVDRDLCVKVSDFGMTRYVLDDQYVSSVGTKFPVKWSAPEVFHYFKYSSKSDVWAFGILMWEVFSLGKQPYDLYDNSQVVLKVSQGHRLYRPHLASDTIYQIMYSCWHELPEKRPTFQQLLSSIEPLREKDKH
The experiment in a line: Bmx (h) Upstate kinase activity assay. The following applies: Compound concentration 10.0 uM.

The target of assay [8] is D(3) dopamine receptor (Homo sapiens) (UniProt P35462). Conditions: Compound concentration 10.0 uM.
Assay [9] deals with T2, Mitogen-activated protein kinase 13 (Homo sapiens) (UniProt O15264).
T2 sequence (whole entry): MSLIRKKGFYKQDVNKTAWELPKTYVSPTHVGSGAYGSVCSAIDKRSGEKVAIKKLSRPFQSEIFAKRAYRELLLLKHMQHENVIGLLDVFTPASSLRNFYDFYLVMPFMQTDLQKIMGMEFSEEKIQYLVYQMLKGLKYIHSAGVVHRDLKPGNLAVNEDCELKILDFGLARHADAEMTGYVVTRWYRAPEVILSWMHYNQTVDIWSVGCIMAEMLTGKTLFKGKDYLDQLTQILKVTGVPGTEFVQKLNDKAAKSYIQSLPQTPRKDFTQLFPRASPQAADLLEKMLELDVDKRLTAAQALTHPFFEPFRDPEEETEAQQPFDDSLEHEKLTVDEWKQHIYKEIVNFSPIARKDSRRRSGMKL
The experiment in a line: SAPK4 (h) Upstate kinase activity assay. The following applies: Compound concentration 10.0 uM.

Assay [10] has as its target Sigma non-opioid intracellular receptor 1 (Homo sapiens, UniProt Q99720). The experiment in a line: GPCRScan assay: inhibition of Sigma 1. Details: radioligand conc. used [nm] 4.0 – 5.0, parental cells HEKT.
The target in assay [11] is T3, Ephrin type-B receptor 4 (Homo sapiens) (UniProt P54760).
T3 sequence (whole entry): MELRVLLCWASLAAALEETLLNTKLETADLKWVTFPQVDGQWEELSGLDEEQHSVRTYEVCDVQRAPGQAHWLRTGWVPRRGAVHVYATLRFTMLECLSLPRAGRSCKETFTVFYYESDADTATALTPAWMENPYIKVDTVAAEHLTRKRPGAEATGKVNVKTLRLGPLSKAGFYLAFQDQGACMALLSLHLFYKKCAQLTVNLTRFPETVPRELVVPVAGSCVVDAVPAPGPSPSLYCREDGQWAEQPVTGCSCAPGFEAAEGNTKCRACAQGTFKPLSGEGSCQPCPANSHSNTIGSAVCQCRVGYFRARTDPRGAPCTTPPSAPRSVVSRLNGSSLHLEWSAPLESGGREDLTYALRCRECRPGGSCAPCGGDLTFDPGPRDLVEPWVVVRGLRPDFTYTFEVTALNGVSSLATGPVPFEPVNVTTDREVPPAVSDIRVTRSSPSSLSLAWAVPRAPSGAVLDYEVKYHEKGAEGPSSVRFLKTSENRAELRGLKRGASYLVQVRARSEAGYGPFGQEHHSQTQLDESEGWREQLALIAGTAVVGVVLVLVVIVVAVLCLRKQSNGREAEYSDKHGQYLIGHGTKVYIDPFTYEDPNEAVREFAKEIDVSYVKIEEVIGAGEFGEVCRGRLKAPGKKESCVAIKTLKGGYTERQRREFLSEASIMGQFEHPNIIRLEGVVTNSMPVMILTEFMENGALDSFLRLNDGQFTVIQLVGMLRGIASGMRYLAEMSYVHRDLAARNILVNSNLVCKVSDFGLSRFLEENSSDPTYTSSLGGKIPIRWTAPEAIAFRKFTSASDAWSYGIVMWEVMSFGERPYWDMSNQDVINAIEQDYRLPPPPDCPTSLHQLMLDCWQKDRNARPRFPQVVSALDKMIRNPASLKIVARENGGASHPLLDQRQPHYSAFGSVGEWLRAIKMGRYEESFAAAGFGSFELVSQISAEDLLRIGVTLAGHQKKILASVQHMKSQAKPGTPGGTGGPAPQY
The experiment in a line: EphB4 (h) Upstate kinase activity assay. The following applies: Compound concentration 10.0 uM.

The target in assay [12] is CDK6/cyclin D3 (Homo sapiens) (UniProt P30281+Q00534). The experiment in a line: CDK6/ cyclin D3 (h) Upstate kinase activity assay. The class given is protein-complex assay. Conditions: Compound concentration 10.0 uM.

Chain of D(3) dopamine receptor (Homo sapiens) (P35462 whole entry): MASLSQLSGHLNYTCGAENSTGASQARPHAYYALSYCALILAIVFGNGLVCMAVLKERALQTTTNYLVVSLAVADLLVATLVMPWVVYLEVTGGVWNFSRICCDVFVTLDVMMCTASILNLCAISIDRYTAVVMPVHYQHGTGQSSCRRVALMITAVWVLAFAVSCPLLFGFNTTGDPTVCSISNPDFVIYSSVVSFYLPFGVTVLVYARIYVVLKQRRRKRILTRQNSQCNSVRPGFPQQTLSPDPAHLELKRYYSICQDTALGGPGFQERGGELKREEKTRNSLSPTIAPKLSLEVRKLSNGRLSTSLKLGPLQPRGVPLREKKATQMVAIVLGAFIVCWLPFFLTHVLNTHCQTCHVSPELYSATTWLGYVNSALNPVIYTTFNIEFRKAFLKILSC
Chain of Mitogen-activated protein kinase 1 (Mus musculus) (P63085 whole entry): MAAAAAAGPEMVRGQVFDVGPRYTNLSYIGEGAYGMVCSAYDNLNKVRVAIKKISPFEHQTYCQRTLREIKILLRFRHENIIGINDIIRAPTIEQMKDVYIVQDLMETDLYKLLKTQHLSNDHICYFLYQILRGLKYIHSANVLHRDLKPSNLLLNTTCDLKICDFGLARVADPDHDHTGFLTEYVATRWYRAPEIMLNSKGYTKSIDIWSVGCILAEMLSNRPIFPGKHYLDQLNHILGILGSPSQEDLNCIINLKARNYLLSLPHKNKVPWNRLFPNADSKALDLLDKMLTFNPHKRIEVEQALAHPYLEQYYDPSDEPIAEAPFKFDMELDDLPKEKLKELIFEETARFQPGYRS
Chain of Fibroblast growth factor receptor 3 (Homo sapiens) (P22607 23-806 limits assumed): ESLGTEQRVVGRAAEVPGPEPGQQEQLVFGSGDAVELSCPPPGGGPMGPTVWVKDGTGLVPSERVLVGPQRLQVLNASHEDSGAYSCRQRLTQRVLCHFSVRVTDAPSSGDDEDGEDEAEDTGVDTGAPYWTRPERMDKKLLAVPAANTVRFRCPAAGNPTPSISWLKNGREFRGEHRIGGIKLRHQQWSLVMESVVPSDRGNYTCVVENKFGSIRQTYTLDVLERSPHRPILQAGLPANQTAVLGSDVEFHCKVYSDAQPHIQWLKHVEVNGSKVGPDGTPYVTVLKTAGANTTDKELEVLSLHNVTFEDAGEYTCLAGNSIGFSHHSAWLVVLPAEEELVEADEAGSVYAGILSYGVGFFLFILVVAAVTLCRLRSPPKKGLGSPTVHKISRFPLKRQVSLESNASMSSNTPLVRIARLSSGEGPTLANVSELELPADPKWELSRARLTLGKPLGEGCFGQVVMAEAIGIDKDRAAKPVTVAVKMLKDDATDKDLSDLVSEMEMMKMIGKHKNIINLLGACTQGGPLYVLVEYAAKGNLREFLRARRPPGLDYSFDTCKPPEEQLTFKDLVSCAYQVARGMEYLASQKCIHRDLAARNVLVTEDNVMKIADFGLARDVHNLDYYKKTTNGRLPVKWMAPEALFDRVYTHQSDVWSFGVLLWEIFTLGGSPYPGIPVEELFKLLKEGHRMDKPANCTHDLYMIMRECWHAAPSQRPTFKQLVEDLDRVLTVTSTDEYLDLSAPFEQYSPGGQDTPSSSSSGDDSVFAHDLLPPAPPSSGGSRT
Chain of Sigma non-opioid intracellular receptor 1 (Q99720 whole entry): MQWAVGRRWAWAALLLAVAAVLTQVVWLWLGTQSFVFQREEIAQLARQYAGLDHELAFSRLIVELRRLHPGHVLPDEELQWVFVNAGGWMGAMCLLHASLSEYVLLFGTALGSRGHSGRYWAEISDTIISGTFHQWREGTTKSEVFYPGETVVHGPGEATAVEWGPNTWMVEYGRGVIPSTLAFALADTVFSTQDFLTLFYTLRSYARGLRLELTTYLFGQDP
Chain of Mitogen-activated protein kinase 10 (Homo sapiens) (P53779 whole entry): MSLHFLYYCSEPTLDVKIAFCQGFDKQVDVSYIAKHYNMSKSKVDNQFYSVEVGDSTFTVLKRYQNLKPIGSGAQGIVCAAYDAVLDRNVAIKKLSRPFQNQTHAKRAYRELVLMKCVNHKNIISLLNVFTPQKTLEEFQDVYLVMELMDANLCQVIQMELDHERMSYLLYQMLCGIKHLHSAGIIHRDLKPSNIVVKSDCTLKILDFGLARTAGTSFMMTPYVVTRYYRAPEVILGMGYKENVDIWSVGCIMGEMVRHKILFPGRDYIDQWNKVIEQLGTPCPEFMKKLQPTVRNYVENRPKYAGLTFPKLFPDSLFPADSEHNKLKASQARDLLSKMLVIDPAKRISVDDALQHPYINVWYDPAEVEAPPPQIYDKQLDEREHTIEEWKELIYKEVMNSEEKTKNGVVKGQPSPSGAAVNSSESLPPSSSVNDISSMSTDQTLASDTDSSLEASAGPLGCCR
Chain of Serine/threonine-protein kinase PAK 2 (Homo sapiens) (Q13177 whole entry): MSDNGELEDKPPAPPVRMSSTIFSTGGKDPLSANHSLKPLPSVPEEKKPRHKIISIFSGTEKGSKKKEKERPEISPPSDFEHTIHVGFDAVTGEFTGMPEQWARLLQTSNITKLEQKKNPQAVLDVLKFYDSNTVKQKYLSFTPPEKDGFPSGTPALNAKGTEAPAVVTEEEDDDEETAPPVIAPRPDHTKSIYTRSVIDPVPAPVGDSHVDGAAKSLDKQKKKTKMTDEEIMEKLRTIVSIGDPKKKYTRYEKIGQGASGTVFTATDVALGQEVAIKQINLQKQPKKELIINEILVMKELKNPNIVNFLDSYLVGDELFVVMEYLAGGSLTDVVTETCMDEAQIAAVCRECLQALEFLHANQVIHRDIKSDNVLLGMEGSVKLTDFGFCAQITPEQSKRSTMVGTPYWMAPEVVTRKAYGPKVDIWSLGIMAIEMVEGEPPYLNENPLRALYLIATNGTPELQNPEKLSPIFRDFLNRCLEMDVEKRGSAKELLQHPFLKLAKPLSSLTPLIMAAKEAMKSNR
Chain of Receptor-type tyrosine-protein kinase FLT3 (Homo sapiens) (P36888 whole entry): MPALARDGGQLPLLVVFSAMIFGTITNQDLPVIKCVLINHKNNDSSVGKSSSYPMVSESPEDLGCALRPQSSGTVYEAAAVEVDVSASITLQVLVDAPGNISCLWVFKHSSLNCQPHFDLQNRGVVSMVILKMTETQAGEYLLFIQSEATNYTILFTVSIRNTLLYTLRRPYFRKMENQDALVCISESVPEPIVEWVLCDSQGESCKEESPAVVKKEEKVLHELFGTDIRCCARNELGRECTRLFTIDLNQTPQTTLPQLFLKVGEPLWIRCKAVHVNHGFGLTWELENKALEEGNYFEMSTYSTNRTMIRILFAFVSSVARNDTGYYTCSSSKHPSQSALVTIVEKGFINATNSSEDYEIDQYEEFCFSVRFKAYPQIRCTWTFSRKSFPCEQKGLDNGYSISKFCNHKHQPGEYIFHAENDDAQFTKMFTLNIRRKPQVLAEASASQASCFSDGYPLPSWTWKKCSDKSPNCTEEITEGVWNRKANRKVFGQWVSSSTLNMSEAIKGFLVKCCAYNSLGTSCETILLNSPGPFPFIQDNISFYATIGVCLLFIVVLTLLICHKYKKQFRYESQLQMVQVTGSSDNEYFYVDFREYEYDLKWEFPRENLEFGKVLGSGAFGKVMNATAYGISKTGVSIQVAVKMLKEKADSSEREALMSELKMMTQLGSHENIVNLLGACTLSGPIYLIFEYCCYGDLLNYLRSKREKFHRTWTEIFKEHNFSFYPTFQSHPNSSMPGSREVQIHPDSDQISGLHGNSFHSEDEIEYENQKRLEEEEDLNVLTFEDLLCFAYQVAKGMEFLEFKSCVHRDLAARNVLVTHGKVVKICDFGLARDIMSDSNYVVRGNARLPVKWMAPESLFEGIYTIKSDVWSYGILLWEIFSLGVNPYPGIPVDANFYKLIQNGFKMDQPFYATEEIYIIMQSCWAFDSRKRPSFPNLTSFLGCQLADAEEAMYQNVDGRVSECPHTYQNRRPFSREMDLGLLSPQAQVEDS
Chain of Tyrosine-protein kinase Fyn (Homo sapiens) (P06241 2-537 limits assumed): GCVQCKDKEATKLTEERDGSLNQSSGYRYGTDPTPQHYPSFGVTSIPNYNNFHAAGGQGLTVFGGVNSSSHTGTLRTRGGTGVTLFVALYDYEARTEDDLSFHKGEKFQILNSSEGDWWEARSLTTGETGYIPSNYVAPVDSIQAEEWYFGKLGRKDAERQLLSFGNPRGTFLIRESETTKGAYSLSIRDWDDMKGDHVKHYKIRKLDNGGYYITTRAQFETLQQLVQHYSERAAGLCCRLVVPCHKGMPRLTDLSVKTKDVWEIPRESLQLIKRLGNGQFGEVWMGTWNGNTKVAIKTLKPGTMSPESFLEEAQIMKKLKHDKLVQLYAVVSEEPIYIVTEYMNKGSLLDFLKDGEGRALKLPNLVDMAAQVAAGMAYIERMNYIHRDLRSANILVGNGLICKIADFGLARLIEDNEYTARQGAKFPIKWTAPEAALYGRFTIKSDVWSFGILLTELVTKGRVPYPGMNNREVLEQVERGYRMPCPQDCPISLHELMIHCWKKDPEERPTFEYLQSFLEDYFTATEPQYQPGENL

Consider `Cc1c[nH]c2nccc(Oc3c(F)cc(Nc4cc(Cl)nc(N)n4)cc3F)c12` [BAY-549], for which the inhibition in assay [1] is 98%; in assay [2], 8%; in [3], 2%; in [4], 14%; in assay [5] it was 21%; in assay [6], 12%. Also, the inhibition in [7] is 18%; in assay [8], -5.8%; in assay [9] it was 16%; in assay [11] it was -9%; in [12], 9%. In the assay on HT-29 (Homo sapiens, HT-29), this compound returned an IC50 of 2.9 µM. In the assay on HT-29 (Homo sapiens, HT-29), this compound displayed a total growth inhibition concentration (TGI) of 19 µM. Besides, the CC50 in the assay with HT-29 (Homo sapiens, HT-29, read-out: LC50 (the source's name)) is more than 100 µM. Moreover, in the assay on HT-29 (± SEM 1 % growth), the “Mean % growth (n = 2) for 0.1 µM probe concentration” value came out at 95%. Moreover, the “Mean % growth (n = 2) for 1.0 µM probe concentration” value in the assay with HT-29 (± SEM 1 % growth) is given as 75%. The “Mean % growth (n = 2) for 10.0 µM probe concentration” value with HT-29 (± SEM 4 % growth) came to 10%. The “Mean % growth (n = 2) for 0.01 µM probe concentration” value in the assay with HT-29 (± SEM 8 % growth) is listed as 100%. Besides, the “Mean % growth (n = 2) for 100.0 µM probe concentration” value in the assay on HT-29 (± SEM 9 % growth) is -38%. Also, the Ki in [10] worked out at 6.77 µM.

Values taken from ChEMBL document CHEMBL4507274 (2021).
